The test system of one series is HUVEC. Description: Tube formation assay (preliminary, Table 1). Type of series: cell-based, human. The note with it: minimal concentration causing definite disturbance of tube network, 16-18 h, tested 200, 100, 50, 25, 10 μM. How it is done: 1. Tube Formation Assay (Table 1):
A protocol was designed based on the instructions from the provider (BD Bioscience, San Jose, Calif.). Briefly, wells of a 48 well culture dish were covert with 150 μL matrigel and the matrigel was gelatinized for 30 min at 37° C. A 80-90% confluent HUVEC (BD Bioscience, San Jose, Calif.) culture was trypsin treated, the detached cells were collected by centrifugation and resuspended in EGM-2 media (BD Bioscience, San Jose, Calif.). Cell concentration was adjusted to 100.000 cells/mL. 400 μL of the cell suspension were filled in the matrigel coated wells, and a solution of the inhibitor was added to the intended final concentration. The plates were incubated at 37° C. with 5% CO2 for 16-18 h. Media was removed, and the matrigel surface was washed twice with 500 μL PBS before cells were labeled with 250 μL 8 μM Calcein AM (Pierce, Rockford, Ill.) in PBS for 30 min at 37° C. After two additional washing steps (500 μL PBS) cells were visualized under an inverted microscope. Fluorescence was excited at 488 nm and recorded at 538 nm. The minimum effect concentration was defined as the minimal inhibitor concentration that caused a definite disturbance of the complexity of the formed tube network.

In series [1] the test system is 4T1 mouse breast tumor cells. Description: Boyden chamber cell migration assay with 4T1 tumor cells. The class given is cell-based. Conditions: Mus musculus, read-out: IC50 (4T1 tumor cells). The method, then:
The biological evaluation of the compounds (in terms of their ability to inhibit cell migration) was accomplished in a Boyden chamber cell migration assay. In this assay, mouse breast tumor cells (4T1 cells) or endothelial cells (HUVECs) are seeded on the upper chamber of a transwell insert. Growth factor-containing serum is added to the lower chamber.
Chamber Cell Migration Assay (Tables 4 and 6): Cell migrations were assayed with Boyden chambers [8.0 μm pore size, polyethylene terephthalate membrane, FALCON cell culture insert (Becton-Dickinson)]. 4T1 mouse breast tumor cells or HUVECs were trypsinized and counted. 300 μl of 5-10×10^4 cells in serum-free medium was added to the upper chamber and 500 μl of medium with 10% fetal bovine serum (FBS) was added to the lower chamber. […] Cells on the inside of the transwell inserts were removed with a cotton swab, and cells on the underside of the insert were fixed and stained. Photographs of three random regions were taken and the number of cells was counted to calculate the average number of cells that have transmigrated.

In series [2] the test system is 4T1 mouse breast tumor cells. Nature of the series: Wound-healing assay with 4T1 cells (FIG. 6). The class given is cell-based. The note with it: with serum; 200 μM; overnight. The source says: In the wound healing assay, standard scratches (i.e., wounds) were made through a confluent 4T1 cell layer. In the absence of serum, cells would not migrate across the empty space created by application of the scratch. Upon addition of serum containing migration-enabling factors, migration of 4T1 cells across the scratch was induced. Exposure to these cells to inventive compounds allowed the evaluation of the cell migration inhibitory activity of these compounds.
Wound-Healing Assay (See FIG. 6). 4T1 mouse breast tumor cells in RPMI-1640 medium containing 10% fetal bovine serum (FBS) were seeded into wells of 24-multiwell plates (Becton-Dickinson). After cells grew to confluence, wounds were made with sterile pipette tips. Cells were washed with Phosphate Buffered Saline (PBS) and refreshed with growth medium containing different concentrations of chemical compounds. After overnight incubation at 37° C., cells were fixed and photographed.

A short description of series [3]: Mouse plasma stability study (HPLC). Type of series: in vitro ADME. The note with it: stable = intensity of HPLC signal unchanged over 60 min of incubation. The method, then: Mouse Plasma Stability Studies (Table 5): HPLC conditions: The sample is injected and separated using an Inertsil ODS3 6u 3×150 mm column with a mobile phase of MeCN and water (50% for migrastatin) at a flow of 0.4 mL/min, monitored at 220 nm at 0.02 AUFS (the retention time for migrastatin is ca. 4 min, the identity of this peak was confirmed by mass spectral analysis). Incubation and sample preparation conditions: A solution (ca. 30 mM) of chemical compound (Table 5) in DMSO is prepared. 2 μL of the solution is added to a mixture containing 200 μL of mouse plasma and 800 μL of PBS. The resulting solution is put into a water bath at 37° C., and 100 μL of sample is withdrawn at 10, 20, 30, 45, and 60 min. The precipitate is removed by centrifugation and 20 μL of the supernatant is injected onto the HPLC.

For series [4], the system named is adherent cells (e.g. KYSE-520 cells). Description: Wound healing (scratch) assay (preliminary, Table 2). The class given is cell-based. Conditions: 28 to 30 h, compared to 100 μM Migrastatin, tested 200, 100, 50, 25, 10 μM. How it is done: 2. Wound Healing Assay (Table 2)
The wound healing assay was performed based on the method described by Nakae et al. (Nakae et al., J. Antibiotics (2000), 53, 1130-1136). Briefly, adherent cells were grown in a suitable media to confluence (e.g. KYSE-520 cells in RPMI-1640 with 10% FBS). Cells were starved for 24 h in serum free media. A scratch (ca. 0.5 mm) was applied and the cell layer was washed twice with PBS after removal of the media. Fresh, serum free media with the test compound at the desired concentration was added and the cells were incubated for 28 to 30 h at 37° C., 5% CO2. The scratch size was compared to that observed for cells exposed to 100 μM Migrastatin. Test compounds associated with a scratch size equal to or larger than that observed for cells exposed to 100 μM Migrastatin were deemed to have cell migration inhibitory activity at least equal to Migrastatin.

The next series deals with 4T1 tumor cells. Description: Cell proliferation assay (MTT). The note with it: Mus musculus, 4T1, 48 h, read-out: IC50, 4T1 cell proliferation.
For another series, the system named is tumor cell migration. Conditions: literature value for natural migrastatin; read-out: IC50, wound healing assay (reported activity); cited from earlier work.
The subject of series [5] is HUVECs (human umbilical vein endothelial cells). Nature of the series: Boyden chamber cell migration assay with HUVECs. The class given is cell-based. Conditions: Homo sapiens, HUVEC, read-out: IC50 (HUVEC). How it is done: Chamber Cell Migration Assay (Tables 4 and 6): Cell migrations were assayed with Boyden chambers [8.0 μm pore size, polyethylene terephthalate membrane, FALCON cell culture insert (Becton-Dickinson)]. 4T1 mouse breast tumor cells or HUVECs were trypsinized and counted. 300 μl of 5-10×10^4 cells in serum-free medium was added to the upper chamber and 500 μl of medium with 10% fetal bovine serum (FBS) was added to the lower chamber. The transwells were incubated for 6-8 h at 37° C. with different concentrations of chemical compound in both upper and lower chamber. Cells on the inside of the transwell inserts were removed with a cotton swab, and cells on the underside of the insert were fixed and stained. Photographs of three random regions were taken and the number of cells was counted to calculate the average number of cells that have transmigrated.

The test system of another series is cells. Nature of the series: Chamber cell migration assay, CyQuant readout (preliminary, Table 3). The class given is cell-based. Conditions: 36 h, tested 200, 100, 50, 25, 10 μM. The method, then:
3. Chamber Cell Migration Assay (Table 3)
Cells were grown in an appropriate media to 70 to 80% confluence and incubated in serum and growth factor free media for 24 h. Cells were detached by typsin treatment, collected by centrifugation and resuspended in serum free media to a final concentration of 150,000 cells/mL. 400 μL of the cell suspension were loaded into a fibronectin coated insert for 24 well multidishes. 750 μL fully supplemented media were applied to the compartment under the insert. To both chambers the inhibitor was added at the intended concentration and the plates were incubated for 36 h at 37° C., 5% CO2. […] The resulting CyQuant assay solution was transferred to the cavities of a 96 well microtiter plate and the fluorescence signal was recorded in an appropriate reader. The CyQuant dye forms a highly fluorescent complex with DNA, thus the fluorescence signal is proportional to the number of cells that migrated throught he membrane in the presence of the test compound (N^inh). […] The positive control fluorescent reading correlates with the number of cells that migrate through the membrane in the absence of inhibitor (N^+). […] The negative control fluorescent reading correlates with the number of cells that migrate through the membrane through non-directed processes (N^−). The anti-migratory effect of a test compound is determined by the ratio (N^inh−N^−)/(N^+−N^−).

For `CO[C@H]1/C=C/CC/C=C/C(=O)O[C@H]([C@H](C)C(=O)CCCC2CC(=O)NC(=O)C2)/C(C)=C\[C@@H](C)[C@@H]1O` [migrastatin (1), Migrastatin], the Minimum effect concentration (in the series on HUVEC; in series [4]) was 100 µM throughout. Also, the IC50 was 29 µM in [1]; 42 µM in the series with 4T1 tumor cells; 29 µM in the series with tumor cell migration; 65 µM in series [5]; 200 µM in the series on cells. Besides, the “inhibition of 4T1 cell migration across the scratch, in words” value in series [2] is listed as “not as great”. Further, the “stability (mouse plasma), in words” value in [3] was “stable^1”; in series [3] (listed as migrastatin), “completely inert toward lactone opening”.

(Values after patent US20070037783A1, “Migrastatin analogs and uses thereof” (priority 2003, published 2007).)
